One assay addresses MMP-13 (Homo sapiens, UniProt P45452). Briefly: In-vitro fluorescence assay of MMP-13 activity. It is filed as biochemical. On the procedure: See Knight, C. […] […].
The method was essentially the same as for the determination of MMP-1 activity, described above, except that the final concentration of purified MMP in the assay was 0.5 nM, prepared by diluting with the assay buffer.

Another assay deals with T1, recombinant human MMP-2 (Homo sapiens, UniProt P08253).
T1 sequence (P08253 110-660): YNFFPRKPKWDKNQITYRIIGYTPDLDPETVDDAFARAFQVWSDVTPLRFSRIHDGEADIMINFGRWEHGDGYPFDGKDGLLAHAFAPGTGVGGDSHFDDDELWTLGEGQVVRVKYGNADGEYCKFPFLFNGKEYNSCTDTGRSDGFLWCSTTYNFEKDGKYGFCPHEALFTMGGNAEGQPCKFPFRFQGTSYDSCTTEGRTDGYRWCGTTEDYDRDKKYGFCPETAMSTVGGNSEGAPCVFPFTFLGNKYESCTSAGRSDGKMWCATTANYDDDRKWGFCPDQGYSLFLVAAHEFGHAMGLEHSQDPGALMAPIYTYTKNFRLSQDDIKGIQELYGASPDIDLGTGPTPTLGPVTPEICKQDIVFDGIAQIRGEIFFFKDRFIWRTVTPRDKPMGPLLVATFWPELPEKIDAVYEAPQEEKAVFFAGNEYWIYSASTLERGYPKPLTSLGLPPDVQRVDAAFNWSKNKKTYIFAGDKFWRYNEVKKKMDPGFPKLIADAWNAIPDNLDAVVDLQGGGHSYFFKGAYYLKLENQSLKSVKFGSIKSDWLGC
Briefly: In-vitro fluorescence assay of MMP-2 activity. The assay is classed as biochemical.

Assay [1] relates to TNF-α secretion in Raw 264.7 cells. Briefly: Cell-based assay for inhibition of TNF-α secretion in Raw cells. Particulars: Mus musculus, RAW264.7, LPS 100 ng/ml, 4 hr. On the procedure:
The basic measurement of the assay is the percentage of inhibition of TNF-α secretion and the IC50 determination by a fitting with the model-39 of LSW data analysis tool. […] Cells are split twice a week by scraping and 1 to 10 or 20 dilutions. For testing compounds, cells are cultured to confluence and are seeded the day before the experiment in 24 well culture dishes at 0.5 to 1 million/ml well. On the next morning, the medium from the overnight culture is replaced with the fresh growth medium. The compounds are added at various concentration at the 0.2% of final DMSO concentrations (10 μl of a 20% DMSO solution containing testing compounds is added to each well). The cells are pre-incubated with compounds for 1 hr. LPS (Sigma, L2262) is added to cells at a final concentration of 100 ng/ml (10 μl of a […] LPS solution freshly diluted from a 1 mg/ml LPS stock solution in PBS is added to each well) and cells are further incubated for 4 hr at 37° C. 1 ml of the supernatant was collected, cells are spun down and the supernatants are frozen at −80° C. until use. The TNF-α and other proinflammatory cytokines were detected by an ELISA assay according to the manufacturer's instructions (Biosource International, Inc., Camarillo, Calif. (For IL-1b measurement in Raw cells, one round of freeze and thaw of the cells was required).

The test system of assay [2] is LPS-induced TNF-α secretion in human whole blood. Briefly: Human whole blood assay for LPS-induced TNF-α secretion. The assay is classed as cell-based. The settings on record: Homo sapiens, LPS 100 ng/ml, read-out: TNF Secretion HWB IC50. On the procedure:
procedure is essentially as described in Newton, R. C., et al., (2001) Ann Rheum […]32, incorporated by reference herein in its entirety. The basic measurement of the assay is the percentage of inhibition of TNF-α secretion and the IC50 determination by a […] model-39 of LSW data analysis tool. 350 μl of fresh human blood drawn from healthy volunteers were pre-incubated with compounds for one hour at the various concentrations at 37° C. with turning generally, the final DMSO concentrations should be kept below 0.2%. At the end of cubation, LPS (Sigma, L2262) was added to the blood at 100 ng/ml and the samples were further incubated for 4 hours or overnight at 37° C. with constant rotation. At the end of the incubation period, 650 μl of serum-free medium was added to the blood samples and the samples were centrifuged at 1500 rpm for 15 minutes. 500 μl of supernate was collected and frozen at -80° C. The TNF-α and other proinflammatory cytokines were detected by ELISA assay according to the manufacturer's instruction (Biosource International, Inc., Camarillo, Calif.).

Assay [3] concerns the target T2, TACE (catalytic domain of the recombinant TACE protein) (Homo sapiens, UniProt P78536).
T2 construct: The catalytic domain of the recombinant TACE protein was expressed and purified; made in house
Briefly: TACE FRET assay using TACE Cat. It is filed as biochemical. Particulars: FRET, pro-TNF-α substrate peptide; read-out: TACE IC50. Here is the method:
The procedure is essentially as described in Jin, G. et al., Analytical Biochemistry (2002) 302, 269-275, incorporated by reference herein in its entirety. […] K is the IC50. Generally, n and B are floated, noting that n (hill slope) should be close to 1 and B (background offset) to 0.
Pro-TNF-α substrate peptide Abz-[…]-Dpa (AnaSpec, San Jose, Calif., WARC-1) was prepared as a 2 mM stock solution in the TACE assay buffer (50 mM Tris-HCI, pH 7.4, 25 mM NaCl, 4% Glycerol, 0.005% Brij 35). The catalytic domain of the recombinant TACE protein was expressed and purified. The TACE protein (1 ug/ml) was pretreated with the inhibitors at various concentrations for 10 min at room temperature. The reaction was initiated by the addition of the substrate peptide. The increase in fluorescence was monitored at an Excitation of 320 nm and an Emission of 420 nm over a period of 10 min. The initial rate (slope) of the reaction was determined using a fluorescence plate reader (Molecular Devices, Spectra Max Gemini XS).

We go through 12 molecules from patent publication US7595327B2, “Beta-sulfonamide hydroxamic acid inhibitors of tace/matrix metalloproteinase” (priority 2005, dated 2009).

Each structure is given as a SMILES string. Counter-ions that a name gives are not always drawn.

Usually IC50 stands for the concentration needed to halve the response being measured.

T2 sequence (P78536 223-474 limits assumed): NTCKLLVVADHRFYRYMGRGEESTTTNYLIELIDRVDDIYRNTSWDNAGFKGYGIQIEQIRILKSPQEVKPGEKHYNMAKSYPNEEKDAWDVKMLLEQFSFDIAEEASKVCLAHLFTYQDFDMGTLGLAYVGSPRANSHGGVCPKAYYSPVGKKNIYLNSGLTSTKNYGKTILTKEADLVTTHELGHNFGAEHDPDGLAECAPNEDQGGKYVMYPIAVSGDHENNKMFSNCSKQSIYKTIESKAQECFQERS

For the molecule `Cc1cc(COc2ccc(S(=O)(=O)N[C@@H]3CCOCC3C(=O)NO)cc2)c2ccccc2n1` (stereo in doubt) [Example 24, (3S,4R)-4-[4-(2-Methyl-quinolin-4-ylmethoxy)-benzenesulfonylamino]-tetrahydro-pyran-3-carboxylic acid hydroxyamide], the IC50 is more than 16700 nM on MMP-13; more than 16700 nM at recombinant human MMP-2; 17 nM in assay [1]; 230 nM in assay [2]; 0.8 nM in assay [3].

For the molecule `Cc1cc(COc2ccc(S(=O)(=O)N(C)[C@@H]3CCOCC3C(=O)NO)cc2)c2ccccc2n1` (stereo in doubt) [Example 25, (3S,4R)-4-{Methyl-[4-(2-methyl-quinolin-4-ylmethoxy)-benzenesulfonyl]-amino}-tetrahydro-pyran-3-carboxylic acid hydroxyamide], the IC50 is more than 16700 nM at MMP-13; more than 16700 nM at recombinant human MMP-2; more than 1000 nM in assay [1]; more than 50000 nM in assay [2]; 7.9 nM in assay [3].

As for `Cc1cc(COc2ccc(S(=O)(=O)N(C)[C@H]3COC[C@H]3C(=O)NO)cc2)c2ccccc2n1` (stereo in doubt) [Example 27, (3S,4R)-4-{Methyl-[4-(2-methyl-quinolin-4-ylmethoxy)-benzenesulfonyl]-amino}-tetrahydro-furan-3-carboxylic acid hydroxyamide], the IC50 on MMP-13 was more than 16700 nM; on recombinant human MMP-2, more than 16700 nM; in assay [1] it was 929 nM; in assay [2] it was 41000 nM; in assay [3], 1.4 nM.

Consider `Cc1cc(COc2ccc(S(=O)(=O)N[C@@H]3CN(C(=O)OC(C)(C)C)CCC3C(=O)NO)cc2)c2ccccc2n1` (stereo in doubt) [Example 33, (3S,4R)-4-Hydroxycarbamoyl-3-[4-(2-methyl-quinolin-4-ylmethoxy)-benzenesulfonylamino]-piperidine-1-carboxylic acid tert-butyl ester], for which the IC50 is more than 16700 nM on MMP-13; more than 16700 nM on recombinant human MMP-2; 58 nM in assay [1]; 4700 nM in assay [2]; 0.7 nM in assay [3].

Turning to `Cc1cc(COc2ccc(S(=O)(=O)N[C@@H]3CCN(C=O)C[C@@H]3C(=O)NO)cc2)c2ccccc2n1` [Example 29, (3S,4R)-1-Formyl-4-[4-(2-methyl-quinolin-4-ylmethoxy)-benzenesulfonylamino]-piperidine-3-carboxylic acid hydroxyamide], the IC50 was 13200 nM against MMP-13; more than 16700 nM on recombinant human MMP-2; 7 nM in assay [1]; 86 nM in assay [2]; 0.8 nM in assay [3].

Take `Cc1cc(COc2ccc(S(=O)(=O)N[C@H]3CCN(C(=O)NC(C)(C)C)C[C@H]3C(=O)NO)cc2)c2ccccc2n1` [Example 30, (3S,4R)-4-[4-(2-Methyl-quinolin-4-ylmethoxy)-benzenesulfonylamino]-piperidine-1,3-dicarboxylic acid 1-tert-butylamide 3-hydroxyamide]: the IC50 was 9090 nM at MMP-13; more than 10000 nM at recombinant human MMP-2; 30 nM in assay [1]; 250 nM in assay [2]; less than 0.6 nM in assay [3].

In the case of `Cc1cc(COc2ccc(S(=O)(=O)N[C@@H]3CCOC[C@]3(C)C(=O)NO)cc2)c2ccccc2n1` [Example 44, (3R,4R)-N-hydroxy-3-methyl-4-[({4-[(2-methylquinolin-4-yl)methoxy]phenyl}sulfonyl)amino]tetrahydro-2H-pyran-3-carboxamide], the IC50 at MMP-13 is more than 16700 nM; at recombinant human MMP-2, more than 16700 nM; in assay [1], 1670 nM; in assay [2] it was 46000 nM; in assay [3], 0.5 nM.

For the molecule `Cc1cc(COc2ccc(S(=O)(=O)N[C@@H]3CCOC[C@@]3(C)C(=O)NO)cc2)c2ccccc2n1` [Example 45, (3S,4R)-N-hydroxy-3-methyl-4-[({4-[(2-methylquinolin-4-yl)methoxy]phenyl}sulfonyl)amino]tetrahydro-2H-pyran-3-carboxamide], the IC50 was more than 16700 nM at MMP-13; more than 16700 nM on recombinant human MMP-2; 1920 nM in assay [1]; more than 50000 nM in assay [2]; 6.2 nM in assay [3].

Turning to `Cc1cc(COc2ccc(S(=O)(=O)N[C@@H]3CCN(C=O)C[C@]3(O)C(=O)NO)cc2)c2ccccc2n1` [Example 46, 4-({4-[({(3R,4R)-1-Formyl-3-hydroxy-3-[(hydroxyamino)carbonyl]piperidin-4-yl}amino)sulfonyl]phenoxy}methyl)-2-methylquinolinium trifluoroacetic acid salt], the IC50 is more than 16700 nM on MMP-13; more than 16700 nM at recombinant human MMP-2; 160 nM in assay [1]; 2900 nM in assay [2]; 1.4 nM in assay [3].

For the molecule `CC(=O)N1CC[C@@H](NS(=O)(=O)c2ccc(OCc3cc(C)nc4ccccc34)cc2)[C@@](C)(C(=O)NO)C1` [Example 47, (3S,4R)-1-acetyl-N-hydroxy-3-methyl-4-[({4-[(2-methylquinolin-4-yl)methoxy]phenyl}sulfonyl)amino]piperidine-3-carboxamide], the IC50 against MMP-13 is more than 16700 nM; on recombinant human MMP-2, more than 16700 nM; in assay [1], more than 1000 nM; in assay [2], more than 50000 nM; in assay [3], 6.4 nM.

Regarding `Cc1cc(COc2ccc(S(=O)(=O)N[C@@H]3CCN(C(C)C)C[C@]3(C)C(=O)NO)cc2)c2ccccc2n1` [Example 48, (3S,4R)-N-hydroxy-1-isopropyl-3-methyl-4-[({4-[(2-methylquinolin-4-yl)methoxy]phenyl}sulfonyl)amino]piperidine-3-carboxamide], the IC50 was more than 16700 nM against MMP-13; more than 16700 nM on recombinant human MMP-2; more than 1000 nM in assay [1]; more than 50000 nM in assay [2]; 211 nM in assay [3].

With `C#CCN1CC[C@@H](NS(=O)(=O)c2ccc(OCc3cc(C)nc4ccccc34)cc2)[C@@](C)(C(=O)NO)C1` [Example 49, (3S,4R)-N-hydroxy-3-methyl-4-[({4-[(2-methylquinolin-4-yl)methoxy]phenyl}sulfonyl)amino]-1-prop-2-yn-1-ylpiperidine-3-carboxamide], the IC50 was more than 16700 nM against MMP-13; more than 16700 nM at recombinant human MMP-2; more than 1000 nM in assay [1]; more than 50000 nM in assay [2]; 19 nM in assay [3].
